Here are results for 2 substances from patent US7033829B2, “Method to inhibit cell growth using oligonucleotides” (Trustees of Boston University, priority 2000, dated 2006).

Common to all, as to type: cell-based, human
Data set [1] relates to p53, PCNA and the XPA protein. The experiment in a line: Western blot of DNA repair proteins in keratinocytes. Particulars: within 2 days of treatment. The procedure: Cells were treated with 100 μM pTpT or an equal volume of diluent alone for 48 hours. Total cellular proteins were collected in a buffer consisting of 0.25 M Tris HCl (pH 7.5), 0.375 M NaCl, 2.5% sodium deoxycholate, 1% Triton X-100, 25 mM MgCl2, 1 mM phenylmethyl sulfonyl fluoride, and 0.1 mg ml aprotinin. Proteins (100 μg per sample) were separated by 7.5–15% SDS-PAGE and transferred to a nitrocellulose membrane (Schleicher & Schuell, Keene, N. H.). After transfer, the gel was stained with Coomassie Blue to verify even loading as visualized by the residual high molecular weight proteins. Membranes were blocked in 0.05% Tween-20/PBS with 5% milk, (Bio-Rad Laboratories, Hercules, Calif.). Antibody reactions were performed with the following antibodies: anti p53 (AB-6), anti PCNA (Ab-2) (Oncogene Science), and anti XPA (FL-273) (Santa Cruz Biotechnology). Sheep anti-mouse Ig linked to horseradish peroxidase (Amersham, Arlington Heights, Ill.) (for p53 and PCNA) and goat anti-rabbit IgG (Bio-Rad)(for XPA) were used as the secondary antibodies. Binding was detected by the ECL detection kit (Amersham).
Western blot analysis was used to examine the effect of pTpT treatment on the expression of selected genes known to be involved in DNA repair.

Another data set has as its system p95/Nbs1. The experiment in a line: Modification / phosphorylation of p95/Nbs1 (western blot). The procedure:
Cells were plated at a density of 180,000 cells/ml in RPMI 1640 medium supplemented with 3% FBS. Cells were treated with 40 μM of either of the oligonucleotides for 72 hours. Cells were then collected, washed and fixed for 30 minutes in 4% paraformaldehyde and then permeabilized with 0.1% Triton X-100 for 2 minutes. The TUNEL assay was carried out with components and instructions of the In Situ Cell Death Detection Kit using fluorescein-labeled dUTP from Boehringer Mannheim. TUNEL-positive cells were detected by FACS analysis and confocal microscopy. Cellular Uptake of Oligonucleotides For confocal analysis, Jurkat cells were plated on Permanox chamber slides (Lab-Tek, Naperville, Ill.) and treated for 4 hours with fluorescein phosphoramidite (FAM)-labeled oligonucleotides (Research Genetics, Inc., Huntsville, Ala.). […] Uptake of the oligonucleotides was assessed in 5–10 μm sections with a Carl Zeiss LSM 510 confocal laser microscope. […] Fluorescence was measured on the FL-1 channel. […] Antibody Ab-6 (DO-1 clone, Oncogene Research Products, Cambridge, Mass.) detected p53; antibody KH95 (Santa Cruz Biotechnology, Inc., Santa Cruz, Calif.) detected E2F1; antibody Ab-4 (Oncogene Research products) detected p73. Phospho-p53 (serine 15) was detected using the #9284 polyclonal antibody and phospho-p95/Nbs1 (serine 343) was detected by a phospho-p95/Nbs1-specific polyclonal antibody, both antibodies from Cell Signaling Technology (Beverly, Mass.). p95/Nbs1 antibody (#NB-100-143, Novus Biologicals, Littleton, Colo.) and an actin antibody (I-19, Santa Cruz Biotechnology, Santa Cruz, Calif.) were also used. […] After the indicated times, total protein was collected and analyzed by 8% PAGE and western blot using a polyclonal antibody to p95/Nbs1 (#NB-100-143, Novus Biologicals, Littleton, Colo.). […] Telomere length was determined essentially as described by van Steensel and de Lange (van Steensel, B. and T. de Lange. 1997, Nature 385: 740–743) using the Telo TAGGG Telomere Length Assay from Roche Molecular Biochemicals (Indianapolis, Ind.) and the protocol supplied by the manufacturer. […]
Background: A western blot detects proteins with antibodies after separation by electrophoresis.

Data set [2] relates to E2F1, p53, p53 phosphorylated at serine 15. The data set is described as follows: Western blot of E2F1, p53 and phospho-p53 in neonatal fibroblasts. As for the experimental part: Cells were plated at a density of 180,000 cells/ml in RPMI 1640 medium supplemented with 3% FBS. Cells were treated with 40 μM of either of the oligonucleotides for 72 hours. Cells were then collected, washed and fixed for 30 minutes in 4% paraformaldehyde and then permeabilized with 0.1% Triton X-100 for 2 minutes. The TUNEL assay was carried out with components and instructions of the In Situ Cell Death Detection Kit using fluorescein-labeled dUTP from Boehringer Mannheim. TUNEL-positive cells were detected by FACS analysis and confocal microscopy. Cellular Uptake of Oligonucleotides For confocal analysis, Jurkat cells were plated on Permanox chamber slides (Lab-Tek, Naperville, Ill.) and treated for 4 hours with fluorescein phosphoramidite (FAM)-labeled oligonucleotides (Research Genetics, Inc., Huntsville, Ala.). Adherent cells were fixed in 4% paraformaldehyde in PBS, stained with propidium iodide (PI) to identify nuclei, mounted with Slowfade reagent (Molecular Probes, Eugene, Oreg.), covered with a coverslip and stored at 4° C. in the dark. Uptake of the oligonucleotides was assessed in 5–10 μm sections with a Carl Zeiss LSM 510 confocal laser microscope. Computer images assign green to the FAM-oligonucleotides, red to PI, and yellow to co-localization of the signals. FACS analysis was performed on Jurkat cells identically treated with the FAM-oligonucleotides for 4 hours, then fixed in 0.5 ml of 4% paraformaldehyde overnight at 4° C. Fluorescence was measured on the FL-1 channel. Western Blot Analysis and Antibodies Western blot analysis was performed as previously described [Eller, M. S., et al., (1996), Proc Natl Acad Sci USA 93, 1087–1092]. Antibody Ab-6 (DO-1 clone, Oncogene Research Products, Cambridge, Mass.) detected p53; antibody KH95 (Santa Cruz Biotechnology, Inc., Santa Cruz, Calif.) detected E2F1; antibody Ab-4 (Oncogene Research products) detected p73. Phospho-p53 (serine 15) was detected using the #9284 polyclonal antibody and phospho-p95/Nbs1 (serine 343) was detected by a phospho-p95/Nbs1-specific polyclonal antibody, both antibodies from Cell Signaling Technology (Beverly, Mass.). p95/Nbs1 antibody (#NB-100-143, Novus Biologicals, Littleton, Colo.) and an actin antibody (I-19, Santa Cruz Biotechnology, Santa Cruz, Calif.) were also used. Modification of p95/Nbs1 Jurkat and SCC12F cells were cultured and treated with the oligonucleotides as described above. After the indicated times, total protein was collected and analyzed by 8% PAGE and western blot using a polyclonal antibody to p95/Nbs1 (#NB-100-143, Novus Biologicals, Littleton, Colo.). Immunoprecipitation and treatment with a serine/threonine phosphatase was performed as described by Lim et al. [Lim, D. S. et al., Nature 404:613–617, 2000]. Transient Transfection and Expression of TRF2^DN The Ad TRF2^DN expression vector was the kind gift of Dr. Titia deLange (Rockefeller University). The control vector, pCMV LUC was the gift of Dr. M. Hedayati, Johns Hopkins University. Cells were plated at a density of 3.5×10^3 cells/cm^2. One day later, the cultures were transfected with 1 μg plasmid DNA/35 mm culture dish, using the Fugene 6 Transfection Reagent (Roche Molecular Biochemicals, Indianapolis, Ind.), following the protocol supplied by the manufacturer. Cells were collected at the indicated times after transfection and p95/Nbs1 was examined by western blot as described. Telomere Length Normal human fibroblasts were cultured for 5 days in the presence of either diluent or 40 μM 11mer-1, -2 or -3. The cells were then collected and the genomic DNA isolated using the DNeasy Tissue Kit (Qiagen, Valencia, Calif.). Telomere length was determined essentially as described by van Steensel and de Lange (van Steensel, B. and T. de Lange. 1997, Nature 385: 740–743) using the Telo TAGGG Telomere Length Assay from Roche Molecular Biochemicals (Indianapolis, Ind.) and the protocol supplied by the manufacturer. […]

The next data set relates to Jurkat cells. The data set is described as follows: TUNEL assay in Jurkat cells. Particulars: 40 μM; 72 hours. As for the experimental part:
Cells were plated at a density of 180,000 cells/ml in RPMI 1640 medium supplemented with 3% FBS. Cells were treated with 40 μM of either of the oligonucleotides for 72 hours. Cells were then collected, washed and fixed for 30 minutes in 4% paraformaldehyde and then permeabilized with 0.1% Triton X-100 for 2 minutes. The TUNEL assay was carried out with components and instructions of the In Situ Cell Death Detection Kit using fluorescein-labeled dUTP from Boehringer Mannheim. TUNEL-positive cells were detected by FACS analysis and confocal microscopy. […] Uptake of the oligonucleotides was assessed in 5–10 μm sections with a Carl Zeiss LSM 510 confocal laser microscope. […] Fluorescence was measured on the FL-1 channel. […] Antibody Ab-6 (DO-1 clone, Oncogene Research Products, Cambridge, Mass.) detected p53; antibody KH95 (Santa Cruz Biotechnology, Inc., Santa Cruz, Calif.) detected E2F1; antibody Ab-4 (Oncogene Research products) detected p73. Phospho-p53 (serine 15) was detected using the #9284 polyclonal antibody and phospho-p95/Nbs1 (serine 343) was detected by a phospho-p95/Nbs1-specific polyclonal antibody, both antibodies from Cell Signaling Technology (Beverly, Mass.). p95/Nbs1 antibody (#NB-100-143, Novus Biologicals, Littleton, Colo.) and an actin antibody (I-19, Santa Cruz Biotechnology, Santa Cruz, Calif.) were also used. […]

The test system of a further data set is telomere 3′ overhang. The data set is described as follows: 3′ overhang assay in fibroblasts. As to conditions: 40 μM; up to 7 days.
In data set [3] the test system is serine 15-phosphorylated p53, total p53, E2F1. The data set is described as follows: Western blot of p53 serine 15 phosphorylation and E2F1 in normal control fibroblasts. Particulars: 40 μM. As for the experimental part:
Because the serine 15 site on p53 is known to be phosphorylated in an ATM-dependent manner after exposure to ionizing radiation (IR), we wished to examine the role of ATM in E2F1 induction and p53 serine 15 phosphorylation in response to the 11 mer-1. Fibroblasts from a patient with ataxia telangiectasia (AT) known to lack functional ATM protein, and age-matched normal control fibroblasts (N) were treated with either diluent, 40 μM 11mer-1, sham irradiation or IR (10 Gy). Cells were collected 3 hours (sham or IR) or 48 hours (diluent, 11mer-1) for western blot analysis to detect serine 15-phosphorylated p53 and total p53. In normal fibroblasts, the 11mer-1 induced a 10–15 fold increase in the level p53 phosphorylation on serine 15 compared to diluent-treated controls.

Oligonucleotides are written 5' to 3', each unit as a sugar letter and its base; * is a phosphorothioate linkage, no mark a phosphodiester; rarer units and linkages stand in square brackets, end groups in braces. Plain capitals give the bases only. d = 2'-deoxy (DNA); {P} = phosphate

Take thymidine dinucleotide [pTpT]: the “up-regulation of levels of p53, PCNA and XPA protein” value in data set [1] was 2 to 3 fold.

As for “pGTTAGGGTTAG (DNA {P}-dGdTdTdAdGdGdGdTdTdAdG) [SEQ ID NO: 5]”, the “shift in p95/Nbs1 migration” value in the data set with p95/Nbs1 (Jurkat cells, 48, 72 and 96 hours) is “detects such a shift in p95/Nbs1 migration”; with p95/Nbs1 (SCC12F cells), “respond identically”. Also, the “phosphorylation of p95/Nbs1 (phospho-specific antibody)” value in the data set on p95/Nbs1 (fibroblasts) is on record as “phosphorylation of p95/Nbs1 is induced”. The “E2F1 increase peaked after” value in data set [2] fell in the range of 12 to 24 h. Besides, the “increase in E2F1 seen as early as” value in data set [2] amounted to 4 h. Also, the “phosphorylated p53 (serine 15) first detected at” value in data set [2] was determined as 4 h. Also, the “increase in E2F1 compared to diluent or 11mer-2 treated controls” value in data set [2] (40 μM, 24 hours, densitometry) is 170–250%. For the same substance, the “increase in p53 compared to diluent or 11mer-2 treated controls” value in data set [2] (40 μM, 48 hours) is recorded as 60–300%; in data set [2] (40 μM, 72 hours), 240–380%. The “p53 protein phosphorylated at serine 15” value in data set [2] (sustained through at least 48 hours) is “striking and selective increase”. Besides, the “TUNEL fluorescence (FACS, confocal microscopy)” value in the data set on Jurkat cells is on record as “an increase in fluorescence due to end-label incorporation”. The “degradation of the telomere 3′ overhang” value in the data set with telomere 3′ overhang is listed as “did not result in degradation of the telomere 3′ overhang”. Besides, the E2F1 levels entry in data set [3] is “induced E2F1 levels”. In data set [3] (48 hours), the “increase in p53 phosphorylation on serine 15 compared to diluent” value is recorded as 10–15 fold. The “level of total p53” value in data set [3] (young adult donor, 48 hours) was “minimally induced”.
